Experimental data from PMC5218480 (PLoS ONE, 2017).

System: MV-4-11 cells
Experiment: Gene expression microarray analysis (Affymetrix PrimeView) and GSEA
Type: cell-based, human
Parameters: RFU PODN (11730768_x_at) / Fold change /veh PODN (11730768_x_at) / RFU LINC00158 (11744669_a_at) / Fold change /veh LINC00158 (11744669_a_at) / RFU DUSP10 (11751237_a_at) / Fold change /veh DUSP10 (11751237_a_at) / RFU ID3 (11757404_x_at) / Fold change /veh ID3 (11757404_x_at) / RFU PLEKHG5 (11737974_s_at) / Fold change /veh PLEKHG5 (11737974_s_at) / RFU LRRC4B (11730491_at) / Fold change /veh LRRC4B (11730491_at) / RFU GIMAP4 (11747438_a_at) / Fold change /veh GIMAP4 (11747438_a_at) / RFU KRT8 (11758183_x_at) / Fold change /veh KRT8 (11758183_x_at) / RFU CNN1 (11734310_a_at) / Fold change /veh CNN1 (11734310_a_at) / RFU VPS37D (11726825_at) / Fold change /veh VPS37D (11726825_at) / RFU C10orf10 (11716522_x_at) / Fold change /veh C10orf10 (11716522_x_at) / RFU KIR2DL2 /// KIR2DL4 /// KIR2DL5A /// KIR2DL5B /// KIR2DS1 /// KIR2DS2 /// KIR2DS3 /// KIR2DS4 /// KIR3DL3 /// KIR3DL3 /// KIR3DS1 (11738374_at) / Fold change /veh KIR2DL2 /// KIR2DL4 /// KIR2DL5A /// KIR2DL5B /// KIR2DS1 /// KIR2DS2 /// KIR2DS3 /// KIR2DS4 /// KIR3DL3 /// KIR3DL3 /// KIR3DS1 (11738374_at) / RFU C1QL1 (11718748_at) / Fold change /veh C1QL1 (11718748_at) / RFU TMPRSS4 (11747572_a_at) / Fold change /veh TMPRSS4 (11747572_a_at) / RFU HAMP (11756126_x_at) / Fold change /veh HAMP (11756126_x_at) / RFU RNFT2 (11725882_a_at) / Fold change /veh RNFT2 (11725882_a_at) / RFU NR4A2 (11747474_a_at) / Fold change /veh NR4A2 (11747474_a_at) / RFU ABCC12 (11746883_a_at) / Fold change /veh ABCC12 (11746883_a_at) / RFU TMEM136 (11760407_x_at) / Fold change /veh TMEM136 (11760407_x_at) / RFU CLDN22 /// WWC2 (11732394_at) / Fold change /veh CLDN22 /// WWC2 (11732394_at) / RFU HLA-DPB1 (11760878_x_at) / Fold change /veh HLA-DPB1 (11760878_x_at) / RFU SPINT1 (11716480_a_at) / Fold change /veh SPINT1 (11716480_a_at) / RFU GAP43 (11754022_s_at) / Fold change /veh GAP43 (11754022_s_at) / RFU A4GNT (11735810_at) / Fold change /veh A4GNT (11735810_at) / RFU PRB3 (11715151_x_at) / Fold change /veh PRB3 (11715151_x_at) / RFU TUBB4B (11761932_at) / Fold change /veh TUBB4B (11761932_at) / RFU CAPN14 (11732068_a_at) / Fold change /veh CAPN14 (11732068_a_at) / RFU TMCC2 (11721928_a_at) / Fold change /veh TMCC2 (11721928_a_at) / RFU IRGQ (11745062_a_at) / Fold change /veh IRGQ (11745062_a_at) / RFU FAM174B (11720279_a_at) / Fold change /veh FAM174B (11720279_a_at) / RFU TMPRSS4 (11748680_a_at) / Fold change /veh TMPRSS4 (11748680_a_at) / RFU FAM212B (11763350_a_at) / Fold change /veh FAM212B (11763350_a_at) / RFU PLEKHG5 (11743358_a_at) / Fold change /veh PLEKHG5 (11743358_a_at) / RFU ZSCAN30 (11745921_a_at) / Fold change /veh ZSCAN30 (11745921_a_at) / RFU CMKLR1 (11741424_a_at) / Fold change /veh CMKLR1 (11741424_a_at) / RFU LOC101060620 /// MAPK8IP1 (11723275_at) / Fold change /veh LOC101060620 /// MAPK8IP1 (11723275_at) / RFU SPTSSB (11747773_x_at) / Fold change /veh SPTSSB (11747773_x_at) / RFU PRSS12 (11739890_at) / Fold change /veh PRSS12 (11739890_at) / RFU BIN1 (11741810_x_at) / Fold change /veh BIN1 (11741810_x_at) / RFU WNT11 (11732464_a_at) / Fold change /veh WNT11 (11732464_a_at) / RFU C10orf10 (11716521_a_at) / Fold change /veh C10orf10 (11716521_a_at) / RFU C5orf56 (11738089_at) / Fold change /veh C5orf56 (11738089_at) / RFU CYB561 (11721691_x_at) / Fold change /veh CYB561 (11721691_x_at) / RFU ANKRD19P (11752326_a_at) / Fold change /veh ANKRD19P (11752326_a_at) / RFU OR2T12 /// OR2T33 /// OR2T8 (11738714_s_at) / Fold change /veh OR2T12 /// OR2T33 /// OR2T8 (11738714_s_at) / RFU VCAN (11748164_a_at) / Fold change /veh VCAN (11748164_a_at) / RFU JSRP1 (11732532_at) / Fold change /veh JSRP1 (11732532_at) / RFU KRTAP10-11 (11738290_x_at) / Fold change /veh KRTAP10-11 (11738290_x_at) / RFU MYO3A (11730013_a_at) / Fold change /veh MYO3A (11730013_a_at) / RFU EBF3 (11725865_a_at) / Fold change /veh EBF3 (11725865_a_at) / RFU CAMK2N1 (11719241_x_at) / Fold change /veh CAMK2N1 (11719241_x_at) / RFU C5orf56 (11738088_a_at) / Fold change /veh C5orf56 (11738088_a_at) / RFU OLFML3 (11715873_a_at) / Fold change /veh OLFML3 (11715873_a_at) / RFU LOC100653217 /// NTM (11731650_a_at) / Fold change /veh LOC100653217 /// NTM (11731650_a_at) / RFU MAPK11 (11762145_a_at) / Fold change /veh MAPK11 (11762145_a_at) / RFU FIZ1 (11724087_x_at) / Fold change /veh FIZ1 (11724087_x_at) / RFU OASL (11726364_x_at) / Fold change /veh OASL (11726364_x_at) / RFU SOX15 (11748057_x_at) / Fold change /veh SOX15 (11748057_x_at) / RFU CD79A (11719716_a_at) / Fold change /veh CD79A (11719716_a_at) / RFU HIST1H1D (11736915_at) / Fold change /veh HIST1H1D (11736915_at) / RFU CASKIN2 (11723855_a_at) / Fold change /veh CASKIN2 (11723855_a_at) / RFU LOC730098 (11760151_x_at) / Fold change /veh LOC730098 (11760151_x_at) / RFU OR4N2 (11742367_at) / Fold change /veh OR4N2 (11742367_at) / RFU PRRT2 (11749266_a_at) / Fold change /veh PRRT2 (11749266_a_at) / RFU SNX32 (11753110_a_at) / Fold change /veh SNX32 (11753110_a_at) / RFU CDHR5 (11726645_a_at) / Fold change /veh CDHR5 (11726645_a_at) / RFU RCAN1 (11760418_a_at) / Fold change /veh RCAN1 (11760418_a_at) / RFU FAM167A (11723789_a_at) / Fold change /veh FAM167A (11723789_a_at) / RFU FAM26E (11764081_at) / Fold change /veh FAM26E (11764081_at) / RFU ISYNA1 (11749810_s_at) / Fold change /veh ISYNA1 (11749810_s_at) / RFU ACY1 (11761880_at) / Fold change /veh ACY1 (11761880_at) / RFU 11764098_at / Fold change /veh 11764098_at / RFU SAMD14 (11745864_x_at) / Fold change /veh SAMD14 (11745864_x_at) / RFU NPB (11741838_a_at) / Fold change /veh NPB (11741838_a_at) / RFU TMPRSS6 (11731388_a_at) / Fold change /veh TMPRSS6 (11731388_a_at) / RFU KRTAP10-2 (11738614_at) / Fold change /veh KRTAP10-2 (11738614_at) / RFU ARHGAP8 /// PRR5-ARHGAP8 (11727945_x_at) / Fold change /veh ARHGAP8 /// PRR5-ARHGAP8 (11727945_x_at) / RFU KRTAP5-7 /// NADSYN1 (11734609_at) / Fold change /veh KRTAP5-7 /// NADSYN1 (11734609_at) / RFU RASL12 (11751679_a_at) / Fold change /veh RASL12 (11751679_a_at) / RFU CDKN2B (11736163_a_at) / Fold change /veh CDKN2B (11736163_a_at) / RFU PRF1 (11729649_at) / Fold change /veh PRF1 (11729649_at) / RFU, ZNF638 /// ZNF638-IT1 / Fold change vs veh, ZNF638 /// ZNF638-IT1 / RFU, PANK3 / Fold change vs veh, PANK3 / RFU, SH3YL1 / Fold change vs veh, SH3YL1 / RFU, ZEB2 / Fold change vs veh, ZEB2 / RFU, NRIP1 / Fold change vs veh, NRIP1 / RFU, PTTG1IP / Fold change vs veh, PTTG1IP / RFU, CAPN2 / Fold change vs veh, CAPN2 / RFU, MED14 / Fold change vs veh, MED14 / RFU, SNORA58 / Fold change vs veh, SNORA58 / RFU, C1orf63 / Fold change vs veh, C1orf63 / RFU, LRRFIP1 / Fold change vs veh, LRRFIP1 / RFU, NDUFAF7 / Fold change vs veh, NDUFAF7 / RFU, SLC12A2 / Fold change vs veh, SLC12A2 / RFU, IBTK / Fold change vs veh, IBTK / RFU, ESF1 / Fold change vs veh, ESF1 / Fold change vs veh, TMEM50B / RFU, TAOK1 / Fold change vs veh, TAOK1 / RFU, ACBD3 / Fold change vs veh, ACBD3 / RFU, TMA16 / Fold change vs veh, TMA16 / RFU, RWDD3 / Fold change vs veh, RWDD3 / RFU, BCAT1 / Fold change vs veh, BCAT1 / RFU, EDEM3 / Fold change vs veh, EDEM3 / RFU, TMEM33 / Fold change vs veh, TMEM33 / RFU, WDR75 / Fold change vs veh, WDR75 / RFU, AHCTF1 / Fold change vs veh, AHCTF1 / RFU, TFRC / Fold change vs veh, TFRC / RFU, ZDHHC17 / Fold change vs veh, ZDHHC17 / RFU, NOM1 / Fold change vs veh, NOM1 / RFU, ARL8B / Fold change vs veh, ARL8B / RFU, ZBTB11 / Fold change vs veh, ZBTB11 / RFU, TAMM41 / Fold change vs veh, TAMM41 / RFU, KIAA1704 /// LOC100996395 / Fold change vs veh, KIAA1704 /// LOC100996395 / RFU, ING1 / Fold change vs veh, ING1 / RFU, TRMT61B / Fold change vs veh, TRMT61B / RFU, FUBP3 / Fold change vs veh, FUBP3 / RFU, TP53 / Fold change vs veh, TP53 / RFU, TNKS2 / Fold change vs veh, TNKS2 / RFU, ZFP14 / Fold change vs veh, ZFP14 / RFU, ACTR2 / Fold change vs veh, ACTR2 / RFU, PPP3R1 / Fold change vs veh, PPP3R1 / RFU, PIK3R1 / Fold change vs veh, PIK3R1 / RFU, HNRNPA1 / Fold change vs veh, HNRNPA1 / RFU, RNF170 / Fold change vs veh, RNF170 / RFU, ZNF28 / Fold change vs veh, ZNF28 / RFU, RNGTT / Fold change vs veh, RNGTT / RFU, OGT / Fold change vs veh, OGT / RFU, BRD1 / Fold change vs veh, BRD1 / RFU, MARS / Fold change vs veh, MARS / RFU, ZNF655 / Fold change vs veh, ZNF655 / RFU, FAHD1 / Fold change vs veh, FAHD1 / RFU, BDP1 / Fold change vs veh, BDP1 / RFU, LRRCC1 / Fold change vs veh, LRRCC1 / RFU, ARID1A / Fold change vs veh, ARID1A / RFU, ZNF146 / Fold change vs veh, ZNF146 / RFU, ZNF330 / Fold change vs veh, ZNF330 / RFU, GPN3 / Fold change vs veh, GPN3 / RFU, C9orf123 / Fold change vs veh, C9orf123 / RFU, N4BP2L2 / Fold change vs veh, N4BP2L2 / RFU, ARFIP1 / Fold change vs veh, ARFIP1 / RFU, FAM179B / Fold change vs veh, FAM179B / RFU, BCL10 / Fold change vs veh, BCL10 / RFU, UHRF1BP1L / Fold change vs veh, UHRF1BP1L / RFU, BET1 / Fold change vs veh, BET1 / RFU, CNOT2 / Fold change vs veh, CNOT2 / RFU, ZNF268 / Fold change vs veh, ZNF268 / Fold change vs veh, ZNF507 / RFU, DGCR2 / Fold change vs veh, DGCR2 / RFU, WDSUB1 / Fold change vs veh, WDSUB1 / Fold change vs veh, HSP90B1 /// MIR3652 / RFU, ADSS / Fold change vs veh, ADSS / RFU, GK / Fold change vs veh, GK / RFU, ZNF148 / Fold change vs veh, ZNF148 / RFU, TAF9 / Fold change vs veh, TAF9 / RFU, SLC1A5 / Fold change vs veh, SLC1A5 / RFU, SLMO2 / Fold change vs veh, SLMO2 / RFU, ABCC4 / Fold change vs veh, ABCC4 / RFU, LOC101060439 /// RAP1B / Fold change vs veh, LOC101060439 /// RAP1B / RFU, RFX7 / Fold change vs veh, RFX7 / RFU, GTPBP10 / Fold change vs veh, GTPBP10 / RFU, CNEP1R1 / Fold change vs veh, CNEP1R1 / RFU, BIVM-ERCC5 /// ERCC5 / Fold change vs veh, BIVM-ERCC5 /// ERCC5 / RFU, ILF3 / Fold change vs veh, ILF3 / RFU 11762660_at / Fold change /veh 11762660_at / RFU VCAN (11757783_s_at) / Fold change /veh VCAN (11757783_s_at) / RFU DDX43 (11728927_at) / Fold change /veh DDX43 (11728927_at) / RFU KRT8 (11758188_x_at) / Fold change /veh KRT8 (11758188_x_at) / RFU NKD1 (11759106_at) / Fold change /veh NKD1 (11759106_at) / RFU SRD5A1 (11742802_a_at) / Fold change /veh SRD5A1 (11742802_a_at) / RFU TPSAB1 /// TPSB2 (11721975_s_at) / Fold change /veh TPSAB1 /// TPSB2 (11721975_s_at) / RFU GSTM3 (11746129_a_at) / Fold change /veh GSTM3 (11746129_a_at) / RFU IL23R (11737362_x_at) / Fold change /veh IL23R (11737362_x_at) / RFU TMEM51 (11727254_a_at) / Fold change /veh TMEM51 (11727254_a_at) / RFU PIWIL2 (11732686_x_at) / Fold change /veh PIWIL2 (11732686_x_at) / RFU ORM1 (11744905_x_at) / Fold change /veh ORM1 (11744905_x_at) / RFU CCDC152 (11743942_at) / Fold change /veh CCDC152 (11743942_at) / RFU ECM1 (11717891_a_at) / Fold change /veh ECM1 (11717891_a_at) / RFU IL23R (11748794_a_at) / Fold change /veh IL23R (11748794_a_at) / RFU TNFAIP8L3 (11732012_x_at) / Fold change /veh TNFAIP8L3 (11732012_x_at) / RFU MBOAT4 (11741988_at) / Fold change /veh MBOAT4 (11741988_at) / RFU 11764193_at / Fold change /veh 11764193_at / RFU TMEM53 (11763286_at) / Fold change /veh TMEM53 (11763286_at) / RFU MAGEB2 (11727129_at) / Fold change /veh MAGEB2 (11727129_at) / RFU TMEM200A (11744735_a_at) / Fold change /veh TMEM200A (11744735_a_at) / RFU CCDC152 (11751479_a_at) / Fold change /veh CCDC152 (11751479_a_at) / RFU FAM211A (11726209_a_at) / Fold change /veh FAM211A (11726209_a_at) / RFU RGS16 (11746705_a_at) / Fold change /veh RGS16 (11746705_a_at) / RFU VCAN (11755009_s_at) / Fold change /veh VCAN (11755009_s_at) / RFU RHOB (11743442_s_at) / Fold change /veh RHOB (11743442_s_at) / RFU RGS16 (11720943_a_at) / Fold change /veh RGS16 (11720943_a_at) / RFU RGS16 (11720944_at) / Fold change /veh RGS16 (11720944_at) / RFU, VPS4B / Fold change vs veh, VPS4B / RFU, CREB1 / Fold change vs veh, CREB1 / RFU, DNAJC13 / Fold change vs veh, DNAJC13 / RFU, GNAQ / Fold change vs veh, GNAQ / RFU, CDK5R1 / Fold change vs veh, CDK5R1 / RFU, ZRANB3 / Fold change vs veh, ZRANB3 / RFU, CUL4A / Fold change vs veh, CUL4A / RFU, CCNY / Fold change vs veh, CCNY / RFU, UFL1 / Fold change vs veh, UFL1 / RFU, COG3 / Fold change vs veh, COG3 / RFU, DIAPH2 / Fold change vs veh, DIAPH2 / RFU, SKA2 / Fold change vs veh, SKA2 / RFU, AFF3 / Fold change vs veh, AFF3 / RFU, LMF1 / Fold change vs veh, LMF1 / RFU, IPO11 / Fold change vs veh, IPO11 / RFU, DFFB / Fold change vs veh, DFFB / RFU, FOXP1 / Fold change vs veh, FOXP1 / RFU, CARD8 / Fold change vs veh, CARD8 / RFU, STRN3 / Fold change vs veh, STRN3 / RFU, ADK / Fold change vs veh, ADK / RFU, RASSF2 / Fold change vs veh, RASSF2 / RFU, WIPF1 / Fold change vs veh, WIPF1 / RFU, LARP1B / Fold change vs veh, LARP1B / RFU, RASA1 / Fold change vs veh, RASA1 / RFU, RB1 / Fold change vs veh, RB1 / RFU, PPFIA1 / Fold change vs veh, PPFIA1 / RFU, MAT2A / Fold change vs veh, MAT2A / RFU, CCT5 / Fold change vs veh, CCT5 / RFU, WDR92 / Fold change vs veh, WDR92 / RFU, CUX1 / Fold change vs veh, CUX1 / RFU, TTC7A / Fold change vs veh, TTC7A / RFU, TMEM135 / Fold change vs veh, TMEM135 / RFU, DEPTOR / Fold change vs veh, DEPTOR / RFU, CPM / Fold change vs veh, CPM / RFU, DNAJB6 / Fold change vs veh, DNAJB6 / RFU, CACNA2D3 / Fold change vs veh, CACNA2D3 / RFU, DTX4 / Fold change vs veh, DTX4 / RFU, TFCP2 / Fold change vs veh, TFCP2 / RFU, GMCL1 /// GMCL1P1 / Fold change vs veh, GMCL1 /// GMCL1P1 / RFU, AEBP2 / Fold change vs veh, AEBP2 / RFU, SNHG1 /// SNORD22 /// SNORD25 /// SNORD26 /// SNORD27 /// SNORD28 /// SNORD29 /// SNORD31 / Fold change vs veh, SNHG1 /// SNORD22 /// SNORD25 /// SNORD26 /// SNORD27 /// SNORD28 /// SNORD29 /// SNORD31 / Fold change (Aza/veh), C12orf56 (ProbeSet 11735607_a_at) / Fold change (ACY-1035/veh), C12orf56 (ProbeSet 11735607_a_at) / Fold change (Aza/veh), FGFR1OP (ProbeSet 11751329_s_at) / Fold change (ACY-1035/veh), FGFR1OP (ProbeSet 11751329_s_at) / Fold change (Aza/veh), VPS36 (ProbeSet 11739960_a_at) / Fold change (ACY-1035/veh), VPS36 (ProbeSet 11739960_a_at) / RFU SYPL1 (11715823_x_at) / Fold change /veh SYPL1 (11715823_x_at) / RFU IGFBP7 (11715501_s_at) / Fold change /veh IGFBP7 (11715501_s_at) / RFU REEP3 (11722064_at) / Fold change /veh REEP3 (11722064_at) / RFU IGLL1 (11728026_x_at) / Fold change /veh IGLL1 (11728026_x_at): dose or concentration left out as unconfirmed
Settings: ProbeSet 11717876_a_at; LIST D

## Nc1ccc(-c2cccs2)cc1NC(=O)c1ccc2c(c1)cc(C1CC1)n2CCN1CCOCC1 [ACY-1035]
  Fold change vs veh, PPFIA1: 0.87
